# Results: patent US10214507B2, “Carbazole-containing amides, carbamates, and ureas as cryptochrome modulators” (Reset Therapeutics, Inc., priority 2014, dated 2019)
# System: stable U20S reporter cells harboring Per2-dLuc
# Experiment: Per2 assay for evaluating the potency of test compounds (circadian luciferase reporter)
# Format: cell-based
# Settings: amplitude of Per2-dLuc luminescence vs log concentration
# Method: Compounds were screened by using a high-throughput circadian assay system as previously described in Zhang, E. E. et al. Cell, 2009, 139, 199-210. In brief, stable U20S reporter cells harboring Per2-dLuc were plated at a density of 30,000 cells/well in Corning 96-well, solid white, flat bottom, TC-treated microplates (Corning®), and incubated for 48 hours at 37° C. in the presence of 5% CO2 in a medium of Dulbecco's Modified Eagle Medium (DMEM) supplemented with 10% fetal bovine serum (FBS) and penicillin (100 units/mL)-streptomycin (100 μg/mL). […] DMSO stocks are then serially diluted in DMSO, typically diluting 3-fold for each dilution step. Following the 48 h period, cell culture medium is removed from plated cells and cells are synchronized with 200 μL/well of complete cell culture medium (described above), supplemented with 5 μM forskolin (Tocris®) and 1 mM beetle luciferin (Promega®). Immediately following synchronization, 1 μL of compound dilution is added to each well. Plates are sealed, shaken briefly, and gene expression was monitored by measuring luminescence (Tecan® Infinite M200 or Tecan® Infinite M200 Pro) continuously for a minimum of 3 days at 35° C. Raw luminescence data (counts) are first analyzed using Multicycle™ software (Actimetrics, Inc.) to determine the amplitude (amp), period, and phase (phz) for each compound concentration. The period length for control wells (i.e. no compound, DMSO only) should be 26-30 h. Amp data are then plotted against the logarithm compound concentration (M) and analyzed by nonlinear regression analysis to determine the EC50.
smiles,measurement,value
"CC(C)N1CCN(CC(O)Cn2c3ccc(F)cc3c3cc(F)ccc32)C1=O (stereo not shown) [Compound 90, 1-(3-(3,6-difluoro-9H-carbazol-9-yl)-2-hydroxypropyl)-3-isopropylimidazolidin-2-one]",EC50,605 nM
"O=C1CCCN1CC(O)Cn1c2ccccc2c2ccccc21 (stereo not shown) [Compound 68, 1-(3-(9H-carbazol-9-yl)-2-hydroxypropyl)pyrrolidin-2-one]",EC50,288 nM
"COC1CCCN(CC(O)Cn2c3ccccc3c3ccccc32)C1=O (stereo not shown) [Compound 60, 1-(3-(9H-carbazol-9-yl)-2-hydroxypropyl)-3-methoxypiperidin-2-one]",EC50,331 nM
"CCC1CCCN(CC(O)Cn2c3ccc(F)cc3c3cc(F)ccc32)C1=O (stereo not shown) [Compound 24, 1-(3-(3,6-difluoro-9H-carbazol-9-yl)-2-hydroxypropyl)-3-ethylpiperidin-2-one]",EC50,332 nM
"O=C1[C@@H](F)CCN1C[C@H](O)Cn1c2ccccc2c2ccccc21 [Compound 122, (S)-1-((R)-3-(9H-carbazol-9-yl)-2-hydroxypropyl)-3-fluoropyrrolidin-2-one]",EC50,263 nM
"C[C@H]1CCN(C[C@H](O)Cn2c3ccccc3c3ccccc32)C1=O [Compound 117, (S)-1-((R)-3-(9H-carbazol-9-yl)-2-hydroxypropyl)-3-methylpyrrolidin-2-one]",EC50,188 nM
"CCC1CC(=O)N(CC(C)(O)Cn2c3ccc(F)cc3c3cc(F)ccc32)C1 (stereo not shown) [Compound 46, 1-(3-(3,6-difluoro-9H-carbazol-9-yl)-2-hydroxy-2-methylpropyl)-4-ethylpyrrolidin-2-one]",EC50,618 nM
"C[C@H]1CN(C[C@H](O)Cn2c3ccc(F)cc3c3cc(F)ccc32)C(=O)N1 [Compound 135, (S)-1-((R)-3-(3,6-difluoro-9H-carbazol-9-yl)-2-hydroxypropyl)-4-methylimidazolidin-2-one]",EC50,1130 nM
"CC(C)C1CCCN(CC(C)(O)Cn2c3ccc(F)cc3c3cc(F)ccc32)C1=O (stereo not shown) [Compound 26, 1-(3-(3,6-difluoro-9H-carbazol-9-yl)-2-hydroxy-2-methylpropyl)-3-isopropylpiperidin-2-one]",EC50,1050 nM
"CC(O)(CN1CCC(c2ccccc2)C1=O)Cn1c2ccc(F)cc2c2cc(F)ccc21 (stereo not shown) [Compound 54, 1-(3-(3,6-difluoro-9H-carbazol-9-yl)-2-hydroxy-2-methylpropyl)-3-phenylpyrrolidin-2-one]",EC50,808 nM
"C[C@H]1CCC(=O)N(C[C@H](O)Cn2c3ccc(F)cc3c3cc(F)ccc32)C1 [Compound 130, (S)-1-((R)-3-(3,6-difluoro-9H-carbazol-9-yl)-2-hydroxypropyl)-5-methylpiperidin-2-one]",EC50,895 nM
"CC1CCCC(=O)N1CC(O)Cn1c2ccccc2c2ccccc21 (stereo not shown) [Compound 63, 1-(3-(9H-carbazol-9-yl)-2-hydroxypropyl)-6-methylpiperidin-2-one]",EC50,541 nM
"CC1CN(C)C(=O)N(CC(O)Cn2c3ccc(F)cc3c3cc(F)ccc32)C1 (stereo not shown) [Compound 94, 1-(3-(3,6-difluoro-9H-carbazol-9-yl)-2-hydroxypropyl)-3,5-dimethyltetrahydropyrimidin-2(1H)-one]",EC50,833 nM
"O=C1N(CC(O)Cn2c3ccc(F)cc3c3cc(F)ccc32)CCN1c1ccccc1 (stereo not shown) [Compound 89, 1-(3-(3,6-difluoro-9H-carbazol-9-yl)-2-hydroxypropyl)-3-phenylimidazolidin-2-one]",EC50,438 nM
"C[C@@H]1CCC(=O)N(C[C@H](O)Cn2c3ccccc3c3ccccc32)C1 [Compound 131, (R)-1-((R)-3-(9H-carbazol-9-yl)-2-hydroxypropyl)-5-methylpiperidin-2-one]",EC50,280 nM
"CC1CCN(CC(O)Cn2c3ccc(F)cc3c3cc(F)ccc32)C(=O)N1C (stereo not shown) [Compound 101, 1-(3-(3,6-difluoro-9H-carbazol-9-yl)-2-hydroxypropyl)-3,4-dimethyltetrahydropyrimidin-2(1H)-one]",EC50,417 nM
"CC1CCCC(=O)N1CC(C)(O)Cn1c2ccc(F)cc2c2cc(F)ccc21 (stereo not shown) [Compound 40, 1-(3-(3,6-difluoro-9H-carbazol-9-yl)-2-hydroxy-2-methylpropyl)-6-methylpiperidin-2-one]",EC50,484 nM
"O=C1CC(C2CC2)CN1CC(O)Cn1c2ccc(F)cc2c2cc(F)ccc21 (stereo not shown) [Compound 42, 4-cyclopropyl-1-(3-(3,6-difluoro-9H-carbazol-9-yl)-2-hydroxypropyl)pyrrolidin-2-one]",EC50,420 nM
"C[C@](O)(CN1CC[C@H](F)C1=O)Cn1c2ccccc2c2ccccc21 [Compound 128, (S)-1-((R)-3-(9H-carbazol-9-yl)-2-hydroxy-2-methylpropyl)-3-fluoropyrrolidin-2-one]",EC50,172 nM
"CC(O)(CN1CCCCC1=O)Cn1c2ccccc2c2ccccc21 (stereo not shown) [Compound 66, 1-(3-(9H-carbazol-9-yl)-2-hydroxy-2-methylpropyl)piperidin-2-one]",EC50,523 nM
"C[C@@H]1CN(C[C@H](O)Cn2c3ccc(F)cc3c3cc(F)ccc32)C(=O)N1 [Compound 136, (R)-1-((R)-3-(3,6-difluoro-9H-carbazol-9-yl)-2-hydroxypropyl)-4-methylimidazolidin-2-one]",EC50,826 nM
"O=C1[C@@H]2CC[C@@H](C2)N1C[C@H](O)Cn1c2ccc(F)cc2c2cc(F)ccc21 [Compound 104, (1S,4R)-2-((R)-3-(3,6-difluoro-9H-carbazol-9-yl)-2-hydroxypropyl)-2-azabicyclo[2.2.1]heptan-3-one]",EC50,115 nM
"CCC1CCC(=O)N1CC(C)(O)Cn1c2ccc(F)cc2c2cc(F)ccc21 (stereo not shown) [Compound 33, 1-(3-(3,6-difluoro-9H-carbazol-9-yl)-2-hydroxy-2-methylpropyl)-5-ethylpyrrolidin-2-one]",EC50,625 nM
"CC(O)(CN1CCC(F)(F)C1=O)Cn1c2ccc(F)cc2c2cc(F)ccc21 (stereo not shown) [Compound 59, 1-(3-(3,6-difluoro-9H-carbazol-9-yl)-2-hydroxy-2-methylpropyl)-3,3-difluoropyrrolidin-2-one]",EC50,986 nM
"CC(O)(CN1CCCC(C2CCCCC2)C1=O)Cn1c2ccc(F)cc2c2cc(F)ccc21 (stereo not shown) [Compound 21, 3-cyclohexyl-1-(3-(3,6-difluoro-9H-carbazol-9-yl)-2-hydroxy-2-methylpropyl)piperidin-2-one]",EC50,1040 nM
"O=C1N(CC(O)Cn2c3ccccc3c3ccccc32)CCCN1C1CCC1 (stereo not shown) [Compound 100, 1-(3-(9H-carbazol-9-yl)-2-hydroxypropyl)-3-cyclobutyltetrahydropyrimidin-2(1H)-one]",EC50,721 nM
"CC1CCN(CC(O)Cn2c3ccc(F)cc3c3cc(F)ccc32)C(=O)C1 (stereo not shown) [Compound 49, 1-(3-(3,6-difluoro-9H-carbazol-9-yl)-2-hydroxypropyl)-4-methylpiperidin-2-one]",EC50,137 nM
"CC(O)(CN1CCCCC1=O)Cn1c2ccc(F)cc2c2cc(F)ccc21 (stereo not shown) [Compound 5, 1-(3-(3,6-difluoro-9H-carbazol-9-yl)-2-hydroxy-2-methylpropyl)piperidin-2-one]",EC50,536 nM
"C[C@H]1CCC(=O)N1C[C@H](O)Cn1c2ccc(F)cc2c2cc(F)ccc21 [Compound 110, (S)-1-((R)-3-(3,6-difluoro-9H-carbazol-9-yl)-2-hydroxypropyl)-5-methylpyrrolidin-2-one]",EC50,830 nM
"C[C@@H]1CCC(=O)N1C[C@@H](O)Cn1c2ccccc2c2ccccc21 [Compound 113, (R)-1-((S)-3-(9H-carbazol-9-yl)-2-hydroxypropyl)-5-methylpyrrolidin-2-one]",EC50,948 nM
"CC(C)C1CC(=O)N(CC(O)Cn2c3ccc(F)cc3c3cc(F)ccc32)C1 (stereo not shown) [Compound 41, 1-(3-(3,6-difluoro-9H-carbazol-9-yl)-2-hydroxypropyl)-4-isopropylpyrrolidin-2-one]",EC50,373 nM
"CC1CC(=O)N(CC(O)Cn2c3ccc(F)cc3c3cc(F)ccc32)C1 (stereo not shown) [Compound 43, 1-(3-(3,6-difluoro-9H-carbazol-9-yl)-2-hydroxypropyl)-4-methylpyrrolidin-2-one]",EC50,1030 nM
"C[C@@](O)(CN1CC[C@@H](F)C1=O)Cn1c2ccc(F)cc2c2cc(F)ccc21 [Compound 126, (R)-1-((S)-3-(3,6-difluoro-9H-carbazol-9-yl)-2-hydroxy-2-methylpropyl)-3-fluoropyrrolidin-2-one]",EC50,958 nM
"CC1CC(=O)N(CC(C)(O)Cn2c3ccc(F)cc3c3cc(F)ccc32)C1 (stereo not shown) [Compound 44, 1-(3-(3,6-difluoro-9H-carbazol-9-yl)-2-hydroxy-2-methylpropyl)-4-methylpyrrolidin-2-one]",EC50,1060 nM
"CC1CCN(CC(C)(O)Cn2c3ccc(F)cc3c3cc(F)ccc32)C1=O (stereo not shown) [Compound 30, 1-(3-(3,6-difluoro-9H-carbazol-9-yl)-2-hydroxy-2-methylpropyl)-3-methylpyrrolidin-2-one]",EC50,895 nM
"O=C1C(F)CCCN1CC(O)Cn1c2ccc(F)cc2c2cc(F)ccc21 (stereo not shown) [Compound 11, 1-(3-(3,6-difluoro-9H-carbazol-9-yl)-2-hydroxypropyl)-3-fluoropiperidin-2-one]",EC50,120 nM
"CC(O)(CN1Cc2ccccc2NC1=O)Cn1c2ccc(F)cc2c2cc(F)ccc21 (stereo not shown) [Compound 102, 3-(3-(3,6-difluoro-9H-carbazol-9-yl)-2-hydroxy-2-methylpropyl)-3,4-dihydroquinazolin-2(1H)-one]",EC50,455 nM
